In ChEMBL document CHEMBL3784938, “Novel heterocyclic ring-fused oleanolic acid derivatives as osteoclast inhibitors for osteoporosis” (Medchemcomm, 2016):

Assays:
RAW264.7 [1] = test: Antiosteoclast activity in mouse RAW264.7 cells assessed as inhibition of RANKL-induced osteoclast differentiation at 2 uM after 5 days by TRAP assay; format: functional; conditions: RAW264.7, 120 h
RAW264.7 [2] = test: Antiosteoclast activity in mouse RAW264.7 cells assessed as inhibition of RANKL-induced osteoclast differentiation at 20 uM after 5 days by TRAP assay; format: functional; conditions: RAW264.7, 120 h
[3] = Cytotoxicity against mouse RAW264.7 cells assessed as inhibition of cell viability at 10 uM after 24 hrs by MTT assay; format: cell-based; conditions: read-out: INH
RAW264.7 [4] = test: cells; conditions: Mus musculus, RAW264.7, 120 h
Description: Antiosteoclast activity in mouse RAW264.7 cells assessed as inhibition of RANKL-induced osteoclast differentiation after 5 days by TRAP assay

[5] = Cytotoxicity against mouse RAW264.7 cells assessed as inhibition of cell viability at 5 uM after 24 hrs by MTT assay; format: cell-based; conditions: read-out: INH
[6] = Cytotoxicity against mouse RAW264.7 cells assessed as inhibition of cell viability at 20 uM after 24 hrs by MTT assay; format: cell-based; conditions: read-out: INH
[7] = Cytotoxicity against mouse RAW264.7 cells assessed as inhibition of cell viability at 2 uM after 24 hrs by MTT assay; format: cell-based; conditions: read-out: INH

Structure (SMILES) | inhibition at 2 µM (RAW264.7 [1]) [%] | inhibition at 20 µM (RAW264.7 [2]) [%] | cytotoxicity at 24 h, 10 µM [3] [%] | IC50 (RAW264.7 [4]) [nM] | cytotoxicity at 24 h, 5 µM [5] [%] | cytotoxicity at 24 h, 20 µM [6] [%] | cytotoxicity at 24 h, 2 µM [7] [%]
Cc1cccc(S(=O)(=O)n2cc3c(n2)C(C)(C)[C@@H]2CC[C@]4(C)[C@H](CC=C5[C@@H]6CC(C)(C)CC[C@]6(C(=O)NCCN6CCCCC6)CC[C@]54C)[C@@]2(C)C3)c1 | 33.6 | 100 |  |  |  |  | 
COc1ccc(S(=O)(=O)n2cc3c(n2)C(C)(C)[C@@H]2CC[C@]4(C)[C@H](CC=C5[C@@H]6CC(C)(C)CC[C@]6(C(=O)NCCN6CCCCC6)CC[C@]54C)[C@@]2(C)C3)cc1 | 100 | 100 | 67.5 | 88 | 0 | 72.9 | 0
CC1(C)CC[C@]2(C(=O)NCCN3CCCCC3)CC[C@]3(C)C(=CC[C@@H]4[C@@]5(C)Cc6cn(S(=O)(=O)c7ccc(Cl)cc7)nc6C(C)(C)[C@@H]5CC[C@]43C)[C@@H]2C1 | 0.9 | 100 |  |  |  |  | 
Cn1cnc(S(=O)(=O)n2cc3c(n2)C(C)(C)[C@@H]2CC[C@]4(C)[C@H](CC=C5[C@@H]6CC(C)(C)CC[C@]6(C(=O)NCCN6CCCCC6)CC[C@]54C)[C@@]2(C)C3)c1 | 89.5 | 100 |  |  |  |  | 
CC1(C)CC[C@]2(C(=O)NCCCN3CCOCC3)CC[C@]3(C)C(=CC[C@@H]4[C@@]5(C)Cc6cn(S(=O)(=O)c7ccc(Cl)cc7)nc6C(C)(C)[C@@H]5CC[C@]43C)[C@@H]2C1 | 20.6 | 56.1 |  |  |  |  | 
CC1(C)CC[C@]2(C(=O)NCCN3CCCCC3)CC[C@]3(C)C(=CC[C@@H]4[C@@]5(C)Cc6cnoc6C(C)(C)[C@@H]5CC[C@]43C)[C@@H]2C1 | 78.5 | 100 |  |  |  |  | 
CC1(C)CC[C@]2(C(=O)NCc3ccccc3)CC[C@]3(C)C(=CC[C@@H]4[C@@]5(C)Cc6cn(S(=O)(=O)c7ccc(Cl)cc7)nc6C(C)(C)[C@@H]5CC[C@]43C)[C@@H]2C1 | 0 | 0 |  |  |  |  | 
CC1(C)CC[C@]2(C(=O)NC3CCN(Cc4ccccc4)CC3)CC[C@]3(C)C(=CC[C@@H]4[C@@]5(C)Cc6cn(S(=O)(=O)c7ccc(Br)cc7)nc6C(C)(C)[C@@H]5CC[C@]43C)[C@@H]2C1 | 20.3 | 19.6 |  |  |  |  | 
CC1(C)CC[C@]2(C(=O)O)CC[C@]3(C)C(=CC[C@@H]4[C@@]5(C)Cc6cn[nH]c6C(C)(C)[C@@H]5CC[C@]43C)[C@@H]2C1 | 32.1 | 99 |  |  |  |  | 
CC1(C)CC[C@]2(C(=O)O)CC[C@]3(C)C(=CC[C@@H]4[C@@]5(C)CC[C@H](O)C(C)(C)[C@@H]5CC[C@]43C)[C@@H]2C1 [OLEANOLIC_ACID] | 11.4 | 82.1 |  |  |  |  | 
CC1(C)CC[C@]2(C(=O)NC3CCN(Cc4ccccc4)CC3)CC[C@]3(C)C(=CC[C@@H]4[C@@]5(C)Cc6c[nH]nc6C(C)(C)[C@@H]5CC[C@]43C)[C@@H]2C1 | 88.6 | 100 |  |  |  |  | 
CC1(C)CC[C@]2(C(=O)NCCCN3CCOCC3)CC[C@]3(C)C(=CC[C@@H]4[C@@]5(C)Cc6cn(S(=O)(=O)c7ccc(F)cc7)nc6C(C)(C)[C@@H]5CC[C@]43C)[C@@H]2C1 | 56.1 | 97.7 |  |  |  |  | 
CC1(C)CC[C@]2(C(=O)NCCN3CCCCC3)CC[C@]3(C)C(=CC[C@@H]4[C@@]5(C)Cc6cn(S(=O)(=O)c7ccc(C(C)(C)C)cc7)nc6C(C)(C)[C@@H]5CC[C@]43C)[C@@H]2C1 | 20.8 | 89.8 |  |  |  |  | 
COc1ccc(S(=O)(=O)n2cc3c(n2)C(C)(C)[C@@H]2CC[C@]4(C)[C@H](CC=C5[C@@H]6CC(C)(C)CC[C@]6(C(=O)NCCN6CCCCC6)CC[C@]54C)[C@@]2(C)C3)cc1OC | 100 | 100 | 52.6 | 130 | 0 | 71.1 | 0
CC1(C)CC[C@]2(C(=O)NCc3ccccc3)CC[C@]3(C)C(=CC[C@@H]4[C@@]5(C)Cc6c[nH]nc6C(C)(C)[C@@H]5CC[C@]43C)[C@@H]2C1 | 67.7 | 100 |  |  |  |  | 
CC1(C)CC[C@]2(C(=O)NC3CCN(Cc4ccccc4)CC3)CC[C@]3(C)C(=CC[C@@H]4[C@@]5(C)Cc6cn(S(=O)(=O)c7ccc(OC(F)(F)F)cc7)nc6C(C)(C)[C@@H]5CC[C@]43C)[C@@H]2C1 | 2.2 | 71.9 |  |  |  |  | 
COc1ccc(S(=O)(=O)n2cc3c(n2)C(C)(C)[C@@H]2CC[C@]4(C)[C@H](CC=C5[C@@H]6CC(C)(C)CC[C@]6(C(=O)NC6CCN(Cc7ccccc7)CC6)CC[C@]54C)[C@@]2(C)C3)cc1OC | 93.2 | 100 | 0 | 35 | 0 | 0 | 0
CC1(C)CC[C@]2(C(=O)NC3CCN(Cc4ccccc4)CC3)CC[C@]3(C)C(=CC[C@@H]4[C@@]5(C)Cc6cn(S(=O)(=O)c7ccc(C(C)(C)C)cc7)nc6C(C)(C)[C@@H]5CC[C@]43C)[C@@H]2C1 | 39.2 | 65.6 |  |  |  |  | 

Structure (SMILES) | inhibition at 2 µM (RAW264.7 [1]) [%] | inhibition at 20 µM (RAW264.7 [2]) [%] | cytotoxicity at 24 h, 10 µM [3] [%] | IC50 (RAW264.7 [4]) [nM] | cytotoxicity at 24 h, 5 µM [5] [%] | cytotoxicity at 24 h, 20 µM [6] [%] | cytotoxicity at 24 h, 2 µM [7] [%]
Cc1noc(C)c1S(=O)(=O)n1cc2c(n1)C(C)(C)[C@@H]1CC[C@]3(C)[C@H](CC=C4[C@@H]5CC(C)(C)CC[C@]5(C(=O)NCCCN5CCOCC5)CC[C@]43C)[C@@]1(C)C2 | 75.2 | 100 |  |  |  |  | 
COc1ccc(S(=O)(=O)n2cc3c(n2)C(C)(C)[C@@H]2CC[C@]4(C)[C@H](CC=C5[C@@H]6CC(C)(C)CC[C@]6(C(=O)NCCCN6CCOCC6)CC[C@]54C)[C@@]2(C)C3)cc1OC | 34.4 | 50.9 |  |  |  |  | 
CC1(C)CC[C@]2(C(=O)NCCCN3CCOCC3)CC[C@]3(C)C(=CC[C@@H]4[C@@]5(C)Cc6c[nH]nc6C(C)(C)[C@@H]5CC[C@]43C)[C@@H]2C1 | 49.8 | 100 |  |  |  |  | 
Cc1noc(C)c1S(=O)(=O)n1cc2c(n1)C(C)(C)[C@@H]1CC[C@]3(C)[C@H](CC=C4[C@@H]5CC(C)(C)CC[C@]5(C(=O)NC5CCN(Cc6ccccc6)CC5)CC[C@]43C)[C@@]1(C)C2 | 64 | 69.5 |  |  |  |  | 
CC1(C)CC[C@]2(C(=O)NC3CCN(Cc4ccccc4)CC3)CC[C@]3(C)C(=CC[C@@H]4[C@@]5(C)Cc6cn(S(=O)(=O)c7ccc(C(F)(F)F)cc7)nc6C(C)(C)[C@@H]5CC[C@]43C)[C@@H]2C1 | 83.6 | 82.1 |  |  |  |  | 
CC1(C)CC[C@]2(C(=O)NCCCN3CCOCC3)CC[C@]3(C)C(=CC[C@@H]4[C@@]5(C)Cc6cn(S(=O)(=O)c7ccc(C(C)(C)C)cc7)nc6C(C)(C)[C@@H]5CC[C@]43C)[C@@H]2C1 | 56.1 | 97.7 |  |  |  |  | 
CC1(C)CC[C@]2(C(=O)NCCCN3CCOCC3)CC[C@]3(C)C(=CC[C@@H]4[C@@]5(C)Cc6cn(S(=O)(=O)c7ccc(OC(F)(F)F)cc7)nc6C(C)(C)[C@@H]5CC[C@]43C)[C@@H]2C1 | 31.8 | 86.3 |  |  |  |  | 
CC1(C)CC[C@]2(C(=O)O)CC[C@]3(C)C(=CC[C@@H]4[C@@]5(C)Cc6cnoc6C(C)(C)[C@@H]5CC[C@]43C)[C@@H]2C1 | 27.4 | 100 |  |  |  |  | 
CC1(C)CC[C@]2(C(=O)NCCCN3CCOCC3)CC[C@]3(C)C(=CC[C@@H]4[C@@]5(C)Cc6cnoc6C(C)(C)[C@@H]5CC[C@]43C)[C@@H]2C1 | 23.2 | 45.9 |  |  |  |  | 
CC1(C)CC[C@]2(C(=O)NC3CCN(Cc4ccccc4)CC3)CC[C@]3(C)C(=CC[C@@H]4[C@@]5(C)Cc6cnoc6C(C)(C)[C@@H]5CC[C@]43C)[C@@H]2C1 | 17.6 | 99.6 |  |  |  |  | 
CC1(C)CC[C@]2(C(=O)NC3CCN(Cc4ccccc4)CC3)CC[C@]3(C)C(=CC[C@@H]4[C@@]5(C)Cc6cn(S(=O)(=O)c7ccc(Cl)cc7)nc6C(C)(C)[C@@H]5CC[C@]43C)[C@@H]2C1 | 18.2 | 41.3 |  |  |  |  | 
Cc1noc(C)c1S(=O)(=O)n1cc2c(n1)C(C)(C)[C@@H]1CC[C@]3(C)[C@H](CC=C4[C@@H]5CC(C)(C)CC[C@]5(C(=O)NCCN5CCCCC5)CC[C@]43C)[C@@]1(C)C2 | 22.3 | 100 | 70.7 |  | 0 | 72 | 0
Cn1cc2c(n1)C(C)(C)[C@@H]1CC[C@]3(C)[C@H](CC=C4[C@@H]5CC(C)(C)CC[C@]5(C(=O)NCc5ccccc5)CC[C@]43C)[C@@]1(C)C2 | 76 | 99.7 |  |  |  |  | 
CC1(C)CC[C@]2(C(=O)NC3CCN(Cc4ccccc4)CC3)CC[C@]3(C)C(=CC[C@@H]4[C@@]5(C)Cc6cn(S(=O)(=O)c7ccc(F)cc7)nc6C(C)(C)[C@@H]5CC[C@]43C)[C@@H]2C1 | 73 | 82.9 |  |  |  |  | 
CC1(C)CC[C@]2(C(=O)NCc3ccccc3)CC[C@]3(C)C(=CC[C@@H]4[C@@]5(C)Cc6cnoc6C(C)(C)[C@@H]5CC[C@]43C)[C@@H]2C1 | 27.3 | 69.3 |  |  |  |  | 
Cn1cnc(S(=O)(=O)n2cc3c(n2)C(C)(C)[C@H]2CC[C@@]4(C)[C@@H](CC=C5[C@H]6CC(C)(C)CC[C@@]6(C(=O)NC6CCN(Cc7ccccc7)CC6)CC[C@@]54C)[C@]2(C)C3)c1 | 80.7 | 100 |  |  |  |  | 
CC1(C)CC[C@]2(C(=O)NCCN3CCCCC3)CC[C@]3(C)C(=CC[C@@H]4[C@@]5(C)Cc6cn(S(=O)(=O)c7ccc(C(F)(F)F)cc7)nc6C(C)(C)[C@@H]5CC[C@]43C)[C@@H]2C1 | 100 | 100 |  | 68 |  |  | 
